Data as given in patent US11104648B2, “Pyrazole derivative” (Zhejiang Research Institute of Chemical Industry Co., Ltd., priority 2018, dated 2021).
Read-outs that look alike come from different tables or passages of the source.

Key:
Type in all cases: in vivo
[1] = tested on: Eggs of Tetranychus Cinnabarinus; assay: Activity assay of eggs of Tetranychus cinnabarinus (spray method, ovicidal); conditions: Tetranychus cinnabarinus; for pest or weed control at 2 µg/mL: concentration 2 mg/L
Procedure, shortened: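 Ovicidal spray test: compound dissolved in DMF, diluted with 1‰ Tween 80 (DMF ≤10%), sprayed on eggs laid during 24 h by females on broad bean leaves. Culture at 26±2° C, 70–80% RH, 16 h photoperiod; non-hatched eggs scored as dead when blank control hatched; three repeats.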

[2] = tested on: adult Tetranychus cinnabarinus; assay: Activity assay of adult Tetranychus cinnabarinus (whole-plant spray on bean seedlings); conditions: 48 h; for pest or weed control at 1.25 µg/mL: concentration 1.25 mg/L
Procedure, shortened: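 Whole plants sprayed after adult mite inoculation and initial census, using compound dissolved in DMF and made up with 1‰ Tween 80 water (DMF not above 10%). Mortality derived from survivor counts at 48 h after treatment. Each treatment run in triplicate.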

[3] = tested on: Tetranychus cinnabarinus Nymphs; assay: Activity assay of Tetranychus cinnabarinus nymphs (spray on broad bean leaves)
Procedure, shortened: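 Mortality, judged as no response to gentle touch, was scored 48 h after spraying Tetranychus cinnabarinus nymphs on broad bean leaves (eggs from females removed after 24 h). Test solutions: DMF-dissolved compound, ≤10% DMF, in 1‰ Tween 80; 26±2° C., 70%–80% RH, 16 h light; triplicate, blank control.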

[4] = concentration 5 mg/L, spray, non-incubated eggs counted as dead, read-out: ovicidal activity
[5] = concentration 2.5 mg/L, read-out: adult mite-killing activity
[6] = 48 h, concentration 2.5 mg/L, read-out: nymph-killing activity
[7] = read-out: adult mite-killing activity
[8] = 48 h, read-out: nymph-killing activity
[9] = spray, read-out: ovicidal activity
[10] = eggs, parallel determination, read-out: Death rate (%)
[11] = adult mites, parallel determination, read-out: Death rate (%)
[12] = 48 h, concentration 2 mg/L, read-out: nymph-killing activity
[13] = 48 h, nymphs, concentration 0.5 mg/L, parallel determination, read-out: Death rate (%)

Row | SMILES | pest or weed control at 5 µg/mL [1, 4] [%] | pest or weed control at 2.5 µg/mL [2, 5] [%] | pest or weed control at 2.5 µg/mL [3, 6] [%] | other results
1 | CCC(=O)OC(C)O/C(=C(/C#N)c1ccc(C(C)(C)C)cc1)c1c(C)c(C)nn1C (stereo not drawn) [Compound 177] | ≥ 90 | ≥ 90 | ≥ 95 | 
2 | CCCC(=O)OC(C)O/C(=C(/C#N)c1ccc(C(C)(C)C)cc1)c1c(C)c(C)nn1C (stereo not drawn) [Compound 178] | ≥ 90 | ≥ 90 | ≥ 95 | 
3 | Cc1nn(C)c(/C(OC(C)OC(=O)C(C)C)=C(\C#N)c2ccc(C(C)(C)C)cc2)c1C (stereo not drawn) [Compound 179] | ≥ 90 | ≥ 90 | ≥ 95 | 
4 | Cc1nn(C)c(/C(OC(C)OC(=O)C(C)(C)C)=C(\C#N)c2ccc(C(C)(C)C)cc2)c1C (stereo not drawn) [Compound 180] | ≥ 90 | ≥ 90 | ≥ 95 | 
5 | CCCCC(=O)OC(C)O/C(=C(/C#N)c1ccc(C(C)(C)C)cc1)c1c(C)c(C)nn1C (stereo not drawn) [Compound 181] | ≥ 90 | ≥ 90 | ≥ 95 | 
6 | Cc1nn(C)c(/C(OC(C)OC(=O)CC(C)C)=C(\C#N)c2ccc(C(C)(C)C)cc2)c1C (stereo not drawn) [Compound 182] | ≥ 90 | ≥ 90 | ≥ 95 | 
7 | COCC(=O)OC(C)O/C(=C(/C#N)c1ccc(C(C)(C)C)cc1)c1c(C)c(C)nn1C (stereo not drawn) [Compound 183] | ≥ 90 | ≥ 90 | ≥ 95 | 
8 | Cc1nn(C)c(/C(OC(C)OC(=O)C2CC2)=C(\C#N)c2ccc(C(C)(C)C)cc2)c1C (stereo not drawn) [Compound 184] | ≥ 90 | ≥ 90 | ≥ 95 | 
9 | CSCC(=O)OC(C)O/C(=C(/C#N)c1ccc(C(C)(C)C)cc1)c1c(C)c(C)nn1C (stereo not drawn) [Compound 185] | ≥ 90 | ≥ 90 | ≥ 95 | 
10 | Cc1nn(C)c(/C(OC(C)OC(=O)C2CCCCC2)=C(\C#N)c2ccc(C(C)(C)C)cc2)c1C (stereo not drawn) [Compound 186] | ≥ 90 | ≥ 90 | ≥ 95 | 
11 | Cc1nn(C)c(/C(OC(C)OC(=O)CF)=C(\C#N)c2ccc(C(C)(C)C)cc2)c1C (stereo not drawn) [Compound 187] |  |  |  | pest or weed control at 5 µg/mL ([1]; read-out: ovicidal activity): ≥ 90%; pest or weed control at 2.5 µg/mL [2, 7]: ≥ 90%; pest or weed control at 2.5 µg/mL [3, 8]: ≥ 95%
12 | Cc1nn(C)c(/C(OC(C)OC(=O)C(F)(F)F)=C(\C#N)c2ccc(C(C)(C)C)cc2)c1C (stereo not drawn) [Compound 188] | ≥ 90 | ≥ 90 | ≥ 95 | 
13 | Cc1nn(C)c(/C(OC(C)OC(=O)c2ccccc2)=C(\C#N)c2ccc(C(C)(C)C)cc2)c1C (stereo not drawn) [Compound 189] | ≥ 90 | ≥ 90 | ≥ 95 | 
14 | Cc1nn(C)c(/C(OC(C)OC(=O)Cc2ccccc2)=C(\C#N)c2ccc(C(C)(C)C)cc2)c1C (stereo not drawn) [Compound 190] | ≥ 90 | ≥ 90 |  | pest or weed control at 2.5 µg/mL ([3]; concentration 2.5 mg/L, 48 h, read-out: nymph-killing activity): ≥ 95%
15 | CCC(C)(C)C(=O)OC(C)O/C(=C(/C#N)c1ccc(C(C)(C)C)cc1)c1c(C)c(C)nn1C (stereo not drawn) [Compound 191] | ≥ 90 | ≥ 90 | ≥ 95 | 
16 | C=CC(=O)OC(C)O/C(=C(/C#N)c1ccc(C(C)(C)C)cc1)c1c(C)c(C)nn1C (stereo not drawn) [Compound 192] | ≥ 90 | ≥ 90 | ≥ 95 | 
17 | CCn1nc(C)cc1/C(OCOC(C)=O)=C(\C#N)c1ccc(C(C)(C)C)cc1 [Compound 226] | ≥ 90 | ≥ 90 | ≥ 95 | pest or weed control at 2 µg/mL [1, 9]: ≥ 90%; pest or weed control at 2 µg/mL [1, 10]: 100%; pest or weed control at 1.25 µg/mL [2, 11]: 96%; pest or weed control at 1.25 µg/mL [2, 7]: ≥ 90%; pest or weed control at 2 µg/mL [3, 12]: ≥ 90%; pest or weed control at 0.5 µg/mL [3, 13]: 90%
18 | CCC(=O)OCO/C(=C(/C#N)c1ccc(C(C)(C)C)cc1)c1cc(C)nn1CC [Compound 227] | ≥ 90 | ≥ 90 | ≥ 95 | pest or weed control at 2 µg/mL [1, 9]: ≥ 90%; pest or weed control at 2 µg/mL [1, 10]: 97%; pest or weed control at 1.25 µg/mL [2, 11]: 98%; pest or weed control at 1.25 µg/mL [2, 7]: ≥ 90%; pest or weed control at 2 µg/mL [3, 12]: ≥ 90%; pest or weed control at 0.5 µg/mL [3, 13]: 94%
19 | CCCC(=O)OCO/C(=C(/C#N)c1ccc(C(C)(C)C)cc1)c1cc(C)nn1CC [Compound 228] | ≥ 90 | ≥ 90 | ≥ 95 | 
20 | CCn1nc(C)cc1/C(OCOC(=O)C(C)C)=C(\C#N)c1ccc(C(C)(C)C)cc1 [Compound 229] | ≥ 90 | ≥ 90 | ≥ 95 | 
21 | CCn1nc(C)cc1/C(OCOC(=O)C(C)(C)C)=C(\C#N)c1ccc(C(C)(C)C)cc1 [Compound 230] | ≥ 90 | ≥ 90 | ≥ 95 | pest or weed control at 2 µg/mL [1, 9]: ≥ 90%; pest or weed control at 2 µg/mL [1, 10]: 100%; pest or weed control at 1.25 µg/mL [2, 11]: 100%; pest or weed control at 1.25 µg/mL [2, 7]: ≥ 90%; pest or weed control at 2 µg/mL [3, 12]: ≥ 90%; pest or weed control at 0.5 µg/mL [3, 13]: 98%
22 | CCCCC(=O)OCO/C(=C(/C#N)c1ccc(C(C)(C)C)cc1)c1cc(C)nn1CC [Compound 231] | ≥ 90 | ≥ 90 | ≥ 95 | 
23 | CCn1nc(C)cc1/C(OCOC(=O)CC(C)C)=C(\C#N)c1ccc(C(C)(C)C)cc1 [Compound 232] | ≥ 90 | ≥ 90 | ≥ 95 | 
24 | CCn1nc(C)cc1/C(OCOC(=O)COC)=C(\C#N)c1ccc(C(C)(C)C)cc1 [Compound 233] | ≥ 90 | ≥ 90 | ≥ 95 | 
25 | CCn1nc(C)cc1/C(OCOC(=O)C1CC1)=C(\C#N)c1ccc(C(C)(C)C)cc1 [Compound 234] | ≥ 90 | ≥ 90 | ≥ 95 | pest or weed control at 2 µg/mL [1, 9]: ≥ 90%; pest or weed control at 2 µg/mL [1, 10]: 100%; pest or weed control at 1.25 µg/mL [2, 11]: 100%; pest or weed control at 1.25 µg/mL [2, 7]: ≥ 90%; pest or weed control at 2 µg/mL [3, 12]: ≥ 90%; pest or weed control at 0.5 µg/mL [3, 13]: 96%
26 | CCn1nc(C)cc1/C(OCOC(=O)CSC)=C(\C#N)c1ccc(C(C)(C)C)cc1 [Compound 235] | ≥ 90 | ≥ 90 | ≥ 95 | 
27 | CCn1nc(C)cc1/C(OCOC(=O)C1CCCCC1)=C(\C#N)c1ccc(C(C)(C)C)cc1 [Compound 236] | ≥ 90 | ≥ 90 | ≥ 95 | 
28 | CCn1nc(C)cc1/C(OCOC(=O)CF)=C(\C#N)c1ccc(C(C)(C)C)cc1 [Compound 237] |  |  |  | pest or weed control at 5 µg/mL ([1]; read-out: ovicidal activity): ≥ 90%; pest or weed control at 2.5 µg/mL [2, 7]: ≥ 90%; pest or weed control at 2.5 µg/mL [3, 8]: ≥ 95%
29 | CCn1nc(C)cc1/C(OCOC(=O)C(F)(F)F)=C(\C#N)c1ccc(C(C)(C)C)cc1 [Compound 238] | ≥ 90 | ≥ 90 | ≥ 95 | 
30 | CCn1nc(C)cc1/C(OCOC(=O)c1ccccc1)=C(\C#N)c1ccc(C(C)(C)C)cc1 [Compound 239] | ≥ 90 | ≥ 90 | ≥ 95 | 
